From article PMC3968527, “Dynamic mass redistribution analysis of endogenous β-adrenergic receptor signaling in neonatal rat cardiac fibroblasts” (Pharmacology Research & Perspectives, 2014)
Like-named read-outs stand apart in the source and are kept apart here.

Key:
[1] = test system: cAMP generation in NRCF; assay: FRET detection of cAMP generation using ICUE3 in NRCF; type: cell-based, rat; conditions: for effect on ISO-induced FRET (cAMP generation): antagonist 10 μmol/L, ISO 1 μmol/L
Description: ICUE3 adenovirus (Ad-ICUE3) was generously supplied by Dr. Yang Xiang (UC Davis). NRCF were seeded in the fibronectin-coated 10 mm glass-bottom insert of 35 mm dishes (MatTek Corporation, Ashland, MA) at 5 × 10^4 cells/10 mm insert and infected with Ad-ICUE3 at a multiplicity of infection (MOI) of 40 for 24 h with or without CTX addition (100 ng/mL overnight). 24 h after infection, the cells were rinsed and media replaced with imaging buffer, as previously described (Tilley et al. [2010]), prior to imaging using a Leica DMI4000B inverted microscope with a Leica DFC365 FX 1.4-megapixel monochrome digital camera with cyan fluorescent protein (CFP) excitation and CFP and yellow fluorescent protein (YFP) emissions measured every 2 sec. Cells were pretreated for 5 min with buffer or antagonists then, following 30 sec of baseline reads, the cells were stimulated with isoproterenol. The entire field-of view at 20× magnification was used to capture changes in fluorescence resonance energy transfer (FRET) in the NRCF population and each treatment condition was performed independently at least three times. Quantification of the ICUE3 ratio was calculated as changes in CFP emission/YFP emission over time, normalized to baseline.
EC50 and Emax values were attained via nonlinear regression curve fitting of the DMR, ICUE3, or EGFR internalization responses using Prism 5.0 software (GraphPad Software Inc.; San Diego, CA). Statistical analyses were performed using a one-way analysis of variance (ANOVA) followed by a Newman–Keuls multiple comparisons test or a two-tailed unpaired t-test, as appropriate. A value of P < 0.05 was considered statistically significant.

[2] = test system: endogenous βAR in primary neonatal rat cardiac fibroblasts (NRCF); assay: Dynamic mass redistribution (DMR) response to βAR ligands in NRCF; type: cell-based; conditions: for EC50: read-out: EC50 (DMR)
[3] = test system: dynamin; parameters: method as in Kirchhausen et al. [2008]; conditions: known/reported IC50; ref Kirchhausen et al. [2008]; cited from earlier work
[4] = test system: Flag-EGFR-mYFP; assay: EGFR internalization, on-cell western for loss of surface Flag-EGFR-mYFP in NRCF; type: cell-based, rat; conditions: Fig. 7C, 60 min treatment
Description: NRCF were seeded either in 35 mm glass-bottom dishes as described above or in clear-bottom black-walled 96-well plates (655090; Greiner Bio-One, Monroe, NC) at 3 × 10^4 cells/well and infected with Ad-Flag-EGFR-mYFP (constructed at Vector Biolabs, Philadelphia, PA) at an MOI of 200 for 24 h prior to stimulation with agonist as indicated. After 1 h, cells were fixed in 4% paraformaldehyde (163201145; Wako Chemicals, Richmond, VA) for 20 min, rinsed with phosphate-buffered saline (Corning/Cellgro, 21-030-CV) and on-cell western staining (nonpermeabolized) was performed using anti-Flag M2 antibody (1:1000, 3 h at RT, Sigma, F1804), IRDye® 800CW Conjugated Goat (polyclonal) Anti-mouse secondary antibody (1:1000, 1 h at RT, LI-COR, 926-32210) and DRAQ5 (1:5000, 1 h at RT, Cell Signaling Technology, #4084) following the LI-COR on-cell protocol. Flag and DRAQ5 signals were detected using Odyssey CLx infrared imaging system (LI-COR Biosciences, Lincoln, NE) and YFP signal was measured with a Tecan M1000 plate reader. Amount of EGFR internalization was calculated by normalizing the Flag signal to both the DRAQ5 (cell number control) and YFP (infection control) signals: Flag/DRAQ5/YFP. […] San Diego, CA). Statistical analyses were performed using a one-way analysis of variance (ANOVA) followed by a Newman–Keuls multiple comparisons test or a two-tailed unpaired t-test, as appropriate. […]

[5] = test system: EGFR in NRCF; assay: EGFR-dependent DMR response to EGF in NRCF; type: cell-based, rat
[6] = antagonist 10 μmol/L, ISO 100 nmol/L
[7] = Rattus norvegicus, Cardiac fibroblast, agonist + buffer, 3-day-old NRCF
[8] = agonist + buffer, 3-day-old NRCF
[9] = agonist + cholera toxin (100 ng/mL)
[10] = βAR antagonist alone, positive-deflected DMR (inverse agonism)
[11] = agonist + propranolol (1 μmol/L)

Cn1cc(C(F)(F)F)nc1-c1ccc(OCC(O)CNCCOc2ccc(O)c(C(N)=O)c2)cc1 (stereo not shown) [CGP 20712A]
effect on ISO-induced FRET (cAMP generation) [1]: partial blockade | DMR response of antagonist alone ([2]; 100 μmol/L, likely due to a toxic effect on the cells): extreme positive DMR deflection | effect on ISO-mediated DMR effect [2, 6]: very small, though significant, decrease

CC(CCc1ccc(O)cc1)NCCc1ccc(O)c(O)c1 (stereo not shown) [Dobutamine]
DMR responses in presence of Prop ([2]; Prop 1 μmol/L): completely blocked | EC50 [2, 7]: 134 ± 11.7 nM | Emax (DMR) [2, 8]: −217.1 ± 3.5 pm | Emax (DMR) [2, 9]: −86.0 ± 3.4 pm | maximal DMR response, % of the ISO and Sal responses ([2]; at micromolar concentrations): ~75% | EC50 [2, 9]: 50 ± 16.8 nM

O=C(N/N=C/c1ccc(O)c(O)c1)c1cc2ccccc2cc1O [Dyn, dynasore]
IC50 [3]: 15 µM | effect on ISO-mediated DMR effect ([2]; Dyn pretreatment 100 μmol/L, 30 min): enhanced

COc1cc2ncnc(Nc3ccc(F)c(Cl)c3)c2cc1OCCCN1CCOCC1 [Gef, gefitinib]
ISO-induced DMR response after pretreatment, % of the buffer-pretreated ISO response ([2]; ISO 100 nmol/L, CTX 100 ng/mL overnight, Gef 1 μmol/L): ~65% | reduction of the ISO DMR response ([2]; ISO 100 nmol/L, CTX 100 ng/mL overnight, Gef 1 μmol/L, Fig. 7F): ~35%

Cc1ccc(OCC(O)C(C)NC(C)C)c2c1CCC2 (stereo not shown) [ICI 188,551, ICI 118,551]
effect on ISO-induced FRET (cAMP generation) [1]: significantly blocked | effect on ISO-mediated DMR effect [2, 6]: very significantly reduced | Emax (DMR) [2, 10]: 117.3 ± 5.4 pm | EC50 [2, 10]: 192 ± 61.7 nM

CC(C)NCC(O)c1ccc(O)c(O)c1 (stereo not shown) [Isoproterenol]
EC50 ([1]; Rattus norvegicus, Fig. 5B): 7.4 ± 5.6 nM | EC50 [4]: 17.1 ± 5.5 nM | Emax (DMR) ([2]; 8-day-old NRCF, Fig. 1D): −40 ± 5.3 pm | ISO DMR response, % of the response attained with 2.5 × 10^4 cells ([2]; ISO 100 nmol/L, 1 × 10^4 cells per well): ~25% | ISO DMR response, % of the response attained with 2.5 × 10^4 cells ([2]; ISO 100 nmol/L, 1.5 × 10^4 cells per well): ~50% | EC50 [2, 7]: 15.4 ± 4.2 nM | Emax (DMR) [2, 8]: −266.1 ± 8.2 pm | Emax (DMR) [2, 9]: −109.6 ± 6.4 pm | Emax (DMR) [2, 11]: −247.6 ± 4.3 pm | EC50 [2, 11]: 809 ± 84.1 nM | EC50 [2, 9]: 30.1 ± 17.4 nM

CC(C)NCC(O)COc1cccc2ccccc12 (stereo not shown) [Propranolol, propranolol]
effect on ISO-induced FRET (cAMP generation) [1]: significantly blocked | effect on ISO-mediated DMR effect [2, 6]: very significantly reduced | Emax (DMR) [2, 10]: 81.2 ± 2.5 pm

COc1ccc(C2CNC(=O)C2)cc1OC1CCCC1 (stereo not shown) [Rol, rolipram]
effect on ISO-mediated ICUE3 response ([1]; Rol 10 nmol/L): significantly enhanced | effect on ISO-mediated DMR response ([2]; Rol 10 nmol/L): significantly enhanced

CC(C)(C)NCC(O)c1ccc(O)c(CO)c1 (stereo not shown) [Salbutamol, salbutamol]
EC50 [2, 7]: 15.6 ± 0.8 nM | Emax (DMR) [2, 8]: −257.1 ± 1.8 pm | Emax (DMR) [2, 9]: −122.4 ± 2.1 pm | Emax (DMR) [2, 11]: −251.9 ± 6.3 pm | EC50 [2, 9]: 30.1 ± 4.9 nM

cholera toxin [CTX]
effect on ISO-dependent cAMP generation [1]: substantially reduced | ISO-induced DMR response after pretreatment, % of the buffer-pretreated ISO response [2]: ~35% | reduction of the ISO DMR response [2]: ~65%

epidermal growth factor [EGF]
EC50 ([5]; Fig. S2D, read-out: EC50 (positive-deflected DMR)): < 1 nM | EC50 ([5]; printed in picture of Fig. S2D, read-out: EC50 (peak DMR)): 0.45 ± 0.03 nM
